The NIST ThermoML archive (doi:10.1016/j.tca.2009.09.001)
Numbers after ± are expanded uncertainties.

What was measured:
[1] = Crystal; DTA
[2] = Molar enthalpy of transition or fusion; conditions: Crystal; DSC

Normal melting temperature [1] | Molar enthalpy of transition or fusion [2] | Structure (SMILES)
104 ± 1 °C | 3.59 ± 0.12 kcal/mol | O[C@H]1CCCC[C@@H]1O [1,2-cyclohexanediol, (1S,2S)-]
99 ± 1 °C | 8.22 ± 0.239 kcal/mol | O[C@@H]1CCCC[C@H]1O (relative stereo) [trans-1,2-cyclohexanediol]
171 ± 1 °C | 5.35 ± 0.167 kcal/mol | O=C(O)[C@H](O)[C@@H](O)C(=O)O [(2R,3R)-2,3-dihydroxybutanedioic acid]
108 ± 1 °C | 4.3 ± 0.143 kcal/mol | O[C@@H]1CCCC[C@H]1O [(1R,2R)-1,2-cyclohexanediol]
